Source: patent US20190119282A1, “IMIDAZOPYRIDAZINES USEFUL AS INHIBITORS OF THE PAR-2 SIGNALING PATHWAY” (Vertex Pharmaceuticals Incorporated, priority 2013, published 2019)
Marks after values point to notes of the source that are not given here.

How the values were obtained:
[1] = target: T1, PAR2 (HT-29 cells, trypsin activation) (Homo sapiens, UniProt P55085); test: Ca FLIPR TETRA assay, ANTAGONIST mode, stimulation with 3.1 U/mL trypsin; assay type: cell-based; details: HT-29 cells, antagonist mode, stimulation with 3.1 U/mL trypsin
T1 construct: host or cells: HT-29 cells
T1 sequence (P55085 26-397): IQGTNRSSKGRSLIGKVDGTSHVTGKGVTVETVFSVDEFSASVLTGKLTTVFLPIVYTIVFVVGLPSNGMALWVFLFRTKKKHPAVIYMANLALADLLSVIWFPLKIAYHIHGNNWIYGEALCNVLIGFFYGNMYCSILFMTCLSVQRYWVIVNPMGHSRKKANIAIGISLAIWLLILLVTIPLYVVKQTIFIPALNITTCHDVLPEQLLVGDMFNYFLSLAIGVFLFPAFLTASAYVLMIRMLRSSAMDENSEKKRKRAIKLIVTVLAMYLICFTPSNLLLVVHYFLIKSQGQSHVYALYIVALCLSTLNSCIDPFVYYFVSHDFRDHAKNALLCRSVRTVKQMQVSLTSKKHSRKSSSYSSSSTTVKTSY
How it was run: (§1)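 FLIPR Tetra Ca2+ read-out in HT-29 cells, calcium 5 dye. Compound preincubation 30 min r.t., with an initial read for agonist activity. Final activator levels: SLIGKV 8 μM, thrombin 1 U/mL, trypsin 3.1 U/mL, UTP 0.6 μM.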

[2] = tested on: carrageenan-induced paw edema; test: Rat carrageenan-induced paw edema model; assay type: in vivo, Sprague Dawley rats; details: given 2 hours post carrageenan challenge
Experimental: (§2) Male Sprague Dawley rats and BALB/c mice were housed in groups in a temperature controlled room and were acclimatized in the animal facility for at least three days prior to use. Experiments were performed during the light phase of the cycle. Animals have food and water ad libitum.
Example 63: Rat Carrageenan-Induced Paw Edema Model
Peripheral inflammation was induced by intra-plantar administration of 100 ul of a 1% w/volume (in saline) carrageenan solution under isoflurane anesthesia. The degree of swelling was assessed using the plethysmometer at 2-3-4-5-6 h after carrageenan injection. Test compound or vehicle (0.5% MC/0.1% SDS) was systemically administered at the indicated doses in a volume of 5 mL/kg either I-3 hour before carrageenan challenge (Table 9) or 2 hours post carrageenan challenge (Table 10).
(§3) Data are expressed as the mean % effect. Statistical significance was assessed using t-test for comparison between naive and inflamed rats, and one-way ANOVA followed by post-hoc comparison test for overall drug effectiveness. A difference between groups is considered significant with a p value of <0.05. *, p<0.05; **, p<0.01; ***, p<0.001 vs. vehicle.

[3] = tested on: Thrombin-stimulated Ca2+ response in HT-29 cells; test: Ca FLIPR TETRA assay, ANTAGONIST mode, stimulation with 1 U/mL Thrombin; assay type: cell-based, human; details: Homo sapiens; HT-29 cells, antagonist mode, stimulation with 1 U/mL Thrombin
How it was run: as §1

[4] = tested on: UTP-stimulated Ca2+ response in HT-29 cells; test: Ca FLIPR TETRA assay, ANTAGONIST mode, stimulation with 0.6 μM UTP; assay type: cell-based, human; details: Homo sapiens; HT-29 cells, antagonist mode, stimulation with 0.6 μM UTP
How it was run: as §1

TNBS-induced colitis = test: Mouse TNBS-induced colitis model; assay type: in vivo, BALB/c mice; details: mice
Experimental: as §2
Example 65: Mouse TNBS-Induced Colitis Model
Colitis was induced by intra-colonic administration of 1.5 mg of TNBS in 75 μl of 40% v/volume ethanol solution under isoflurane anesthesia at a depth of 4 cm from the anal verge. Mice were kept with their heads down for 30 additional seconds post administration to ensure distribution of TNBS. Disease activity scores were assessed for a period of 5 days starting prior to TNBS injection (baseline reading). […] Test compounds or vehicle (0.5% MC/0.1% SDS) were systemically administered at the indicated doses in a volume of 10 mL/kg each day for 5 days and starting 1 day before TNBS.
as §3

[5] = target: T2, PAR2 (HT-29 cells, SLIGKV activation) (Homo sapiens, UniProt P55085); test: Ca FLIPR TETRA assay, ANTAGONIST mode, stimulation with 8 μM SLIGKV; assay type: cell-based; details: HT-29 cells, antagonist mode, stimulation with 8 μM SLIGKV
T2 construct: host or cells: HT-29 cells
T2 sequence (P55085 26-397): T1 sequence (P55085 26-397)
How it was run: as §1

[6] = tested on: tryptase-induced mechanical hypersensitivity; test: Rat tryptase-induced mechanical hypersensitivity model; assay type: in vivo, Sprague Dawley rats; details: given 3-18 h before the tryptase challenge
Experimental: as §2
Example 64: Rat Tryptase-Induced Mechanical Hypersensitivity Model
Peripheral sensitization was induced by intra-dermal administration of 500 ng of tryptase in a volume of 10 ul PBS under isoflurane anesthesia. Rats were then placed on a wire mesh grid in separate compartments and allowed to acclimatize before testing. Mechanical hypersensitivity was assessed 30 min after tryptase injection using calibrated von Frey filaments applied perpendicular to the plantar surface of the affected paw using the up-and-down method. Test compounds or vehicle (0.5% MC/0.1% SDS) were systemically administered at doses indicated in a volume of 5 mL/kg 3-18 h before the tryptase challenge (Table 11) or 30 minutes post tryptase challenge (Table 12).
as §3

[7] = In vivo rat pharmacokinetics (intravenous and oral); details: plasma
How it was run: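 Rats dosed by tail-vein bolus at 0.5–1 mg/kg in NMP-based solutions, or by oral gavage at 1–600 mg/kg as solution, suspension or spray-dried dispersion. Jugular blood in K3EDTA gave plasma or citrate-diluted whole blood; LC-MS/MS quantification, non-compartmental PK analysis.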

Compound: CC(C)(C)c1cc(-c2ccc(F)cc2)nn2cc(C(=O)N3CCNC(=O)C3(C)C)nc12 [Compound I-191, 4-(8-(tert-butyl)-6-(4-fluorophenyl)imidazo[1,2-b]pyridazine-2-carbonyl)-3,3-dimethylpiperazin-2-one]
- IC50 [1]: 2.3 nM
- % inhibition of an established carrageenan induced rat paw edema ([2]; dose 0.6 mg/kg): 26%
- % inhibition of an established carrageenan induced rat paw edema ([2]; dose 2 mg/kg): 40* %
- % inhibition of an established carrageenan induced rat paw edema ([2]; dose 3 mg/kg): 46*** %
- % inhibition of an established carrageenan induced rat paw edema ([2]; dose 6 mg/kg): 48* %
- % inhibition of an established carrageenan induced rat paw edema ([2]; dose 10 mg/kg): 50*** %
- % inhibition of an established carrageenan induced rat paw edema ([2]; dose 30 mg/kg): 57*** %
- IC50 [3]: 320 nM
- IC50 [4]: 440 nM
- % improvement in Disease activity scores (TNBS-induced colitis; dose 15 mg/kg each day for 5 days starting 1 day before TNBS): 21** %
- % improvement in Disease activity scores (TNBS-induced colitis; dose 50 mg/kg each day for 5 days starting 1 day before TNBS): 36*** %
- IC50 [5]: 1.4 nM
- % inhibition of tryptase-induced nociception ([6]; dose 1 mg/kg): 26%
- % inhibition of tryptase-induced nociception ([6]; dose 3 mg/kg): 36%
- % inhibition of tryptase-induced nociception ([6]; dose 10 mg/kg): 40** %
- clearance ([7]; intravenous 0.5 to 1 mg/kg, read-out: Clp): 0.7 mL/min/kg
- Vd ([7]; intravenous, read-out: Vss): 3.2 L/kg
- bioavailability ([7]; oral by gavage): 66%
- half-life ([7]; read-out: T ½ (converted)): 56.9 h
